{"source": "patent US20040034037A1", "about": "“Heteroaryl compounds useful as inhibitors of GSK-3” (priority 2002, published 2004)", "target": "T1, GSK-3β (AA 1-420) (Homo sapiens, UniProt P49841)", "T1 construct": "GSK-3β (AA 1-420)", "T1 sequence (P49841 whole entry, the tested form may be a part)": "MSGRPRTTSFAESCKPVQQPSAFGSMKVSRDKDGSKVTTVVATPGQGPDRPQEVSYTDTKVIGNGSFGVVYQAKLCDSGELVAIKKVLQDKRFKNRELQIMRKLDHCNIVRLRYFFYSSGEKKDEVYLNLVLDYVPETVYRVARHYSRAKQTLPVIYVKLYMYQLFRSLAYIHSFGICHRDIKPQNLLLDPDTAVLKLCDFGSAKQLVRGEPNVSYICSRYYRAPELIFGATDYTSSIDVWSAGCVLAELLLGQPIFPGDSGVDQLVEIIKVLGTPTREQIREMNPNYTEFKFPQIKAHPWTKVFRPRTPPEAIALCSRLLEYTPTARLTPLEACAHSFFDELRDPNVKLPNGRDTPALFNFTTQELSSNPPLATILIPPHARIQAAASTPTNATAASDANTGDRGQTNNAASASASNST", "test": "Ki determination for the inhibition of GSK-3 (standard coupled enzyme system)", "assay_type": "biochemical", "conditions": "20 μM ATP, 300 μM peptide, 30° C.", "experimental": "Reactions were carried out in a solution containing 100 mM HEPES (pH 7.5), 10 mM MgCl2, 25 mM NaCl, 300 μM NADH, 1 mM DTT and 1.5% DMSO. Final substrate concentrations in the assay were 20 μM ATP (Sigma Chemicals, St Louis, Mo.) and 300 μM peptide (HSSPHQS(PO3H2)EDEEE, American Peptide, Sunnyvale, Calif.). Reactions were carried out at 30° C. and 20 nM GSK-30. Final concentrations of the components of the coupled enzyme system were 2.5 mM phosphoenolpyruvate, 300 μM NADH, 30 μg/ml pyruvate kinase and 10 μg/ml lactate dehydrogenase.\nAn assay stock buffer solution was prepared containing all of the reagents listed above with the exception of ATP and the test Compound of interest. The assay stock buffer solution (175 μl) was incubated in a 96 well plate with 5 μl of the test compound of interest at final concentrations spanning 0.002 μM to 30 μM at 30° C. for 10 minutes. […] The reaction was initiated by the addition of 20 μl of ATP (final concentration 20 μM). Rates of reaction were obtained using a Molecular Devices Spectramax plate reader (Sunnyvale, Calif.) over 10 minutes at 30° C. The Ki values were determined from the rate data as a function of inhibitor concentration."}
{"smiles": "Nc1nonc1-c1nc2ccccc2n1-c1ccccc1", "note": "[Compound I-50, 1-Phenyl-2-[(4-amino)-1,2,5-oxadiazol-3-yl]benzimidazole]", "values": [{"measurement": "Ki", "value": "< 1000", "unit": "nM"}]}
{"smiles": "CCCn1c(-c2nonc2N)nc2ccccc21", "note": "[Compound I-7, 4-(1-Propyl-1H-benzoimidazol-2-yl)-furazan-3-ylamine]", "values": [{"measurement": "Ki", "value": "< 1000", "unit": "nM"}]}
{"smiles": "Nc1nonc1-c1nc2ccccc2n1CC(F)(F)F", "note": "[Compound I-37, 1-(2,2,2-Trifluoro)ethyl-2-[(4-amino)-1,2,5-oxadiazol-3-yl]benzimidazole]", "values": [{"measurement": "Ki", "value": "< 1000", "unit": "nM"}]}
{"smiles": "C=CCn1c(-c2nonc2N)nc2ccccc21", "note": "[Compound I-9, 4-(1-Allyl-1H-benzoimidazol-2-yl)-furazan-3-ylamine]", "values": [{"measurement": "Ki", "value": "< 1000", "unit": "nM"}]}
{"smiles": "N#CCOc1cccc2c1nc(-c1nonc1N)n2CC#N", "note": "[Compound I-58, 1-Cyanomethyl-2-[(4-amino)-1,2,5-oxadiazol-3-yl]-4/7-cyanomethoxy benzimidazole]", "values": [{"measurement": "Ki", "value": "< 1000", "unit": "nM"}]}
{"smiles": "CC(C#N)n1c(-c2nonc2N)nc2ccccc21", "note": "(racemic) [Compound I-51]", "values": [{"measurement": "Ki", "value": "< 1000", "unit": "nM"}]}
{"smiles": "CC(C)Cn1c(-c2nonc2N)nc2cc(O)ccc21", "note": "[Compound I-129]", "values": [{"measurement": "Ki", "value": "< 1000", "unit": "nM"}]}
{"smiles": "N#CCn1c(-c2nonc2N)nc2ccccc21", "note": "[Compound I-13, [2-(4-Amino-furazan-3-yl)-benzoimidazol-1-yl]-acetonitrile]", "values": [{"measurement": "Ki", "value": "< 1000", "unit": "nM"}]}
{"smiles": "CC(C)n1c(-c2nonc2N)nc2ccccc21", "note": "[Compound I-11, 4-(1-Isopropyl-1H-benzoimidazol-2-yl)-furazan-3-ylamine]", "values": [{"measurement": "Ki", "value": "< 1000", "unit": "nM"}]}
{"smiles": "CC(C(N)=O)n1c(-c2nonc2N)nc2ccccc21", "note": "(stereo not shown) [Compound I-109]", "values": [{"measurement": "Ki", "value": "< 1000", "unit": "nM"}]}
{"smiles": "N#CCn1c(-c2nonc2N)nc2c([N+](=O)[O-])cccc21", "note": "[Compound I-56, 1-Cyanomethyl-2-[(4-amino)-1,2,5-oxadiazol-3-yl]-4-nitro benzimidazole]", "values": [{"measurement": "Ki", "value": "< 1000", "unit": "nM"}]}
{"smiles": "Nc1nonc1-c1nc2ccccc2n1CC(=O)Nc1ccc(F)c(F)c1", "note": "[Compound I-19, 2-[2-(4-Amino-furazan-3-yl)-benzoimidazol-1-yl]-N-(3,4-difluoro-phenyl)-acetamide]", "values": [{"measurement": "Ki", "value": "< 1000", "unit": "nM"}]}
{"smiles": "Nc1nonc1-c1nc2ccccc2n1CC1CC1", "note": "[Compound I-32, 1-Cyclopropylmethyl-2-[(4-amino)-1,2,5-oxadiazol-3-yl]benzimidazole]", "values": [{"measurement": "Ki", "value": "< 1000", "unit": "nM"}]}
{"smiles": "CNc1nccnc1-c1nc2ccccc2n1CC#N", "note": "[Compound I-90, 3-(1-Cyanomethylbenzimidazol-2-yl)-pyrazin-2-yl methylamine]", "values": [{"measurement": "Ki", "value": "< 1000", "unit": "nM"}]}
{"smiles": "CC(C)Cn1c(-c2nc(Cl)cnc2N)nc2ccccc21", "note": "[Compound I-96]", "values": [{"measurement": "Ki", "value": "< 1000", "unit": "nM"}]}
{"smiles": "CC(C)CCn1c(-c2nonc2N)nc2ccccc21", "note": "[Compound I-54, 1-(3-Methyl)butyl-2-[(4-amino)-1,2,5-oxadiazol-3-yl]benzimidazole]", "values": [{"measurement": "Ki", "value": "< 1000", "unit": "nM"}]}
{"smiles": "CCn1c(-c2nonc2N)nc2ccccc21", "note": "[Compound I-55, 4-(1-Ethyl-1H-benzoimidazol-2-yl)-furazan-3-ylamine]", "values": [{"measurement": "Ki", "value": "< 1000", "unit": "nM"}]}
{"smiles": "COc1ccc2c(c1)nc(-c1nonc1N)n2CC#N", "note": "[Compound I-47, 1-Cyanomethyl-2-[(4-amino)-1,2,5-oxadiazol-3-yl]-5/6-methoxy benzimidazole]", "values": [{"measurement": "Ki", "value": "< 1000", "unit": "nM"}]}
{"smiles": "Nc1cccnc1-c1nc2ccccc2[nH]1", "note": "[Compound I-87]", "values": [{"measurement": "Ki", "value": "< 1000", "unit": "nM"}]}
